Laboratory results as given in US12274761B2, “Compositions and methods to detect GLUA1 in brain and to identify the presence of GLUA1-mediated PTSD” (Neurovation Labs, Inc., priority 2016, dated 2025).
Entries after “also recorded” stand apart in the source; their conditions may differ.

Columns and labels:
[1] = test system: Stress-Enhanced Fear Learning (SEFL); assay: Stress-Enhanced Fear Learning (SEFL), a rodent model of PTSD: freezing in Context B; type: in vivo, rats
Excerpt: FIG. 1A illustrates an experimental design for Stress-Enhanced Fear Learning (SEFL), a rodent model of PTSD. FIG. 2A illustrates an abbreviated SEFL experimental design. […] FIG. 3A illustrates a SEFL experimental design. […] FIG. 2C depicts representative Western blot images of GluA1 and GAPDH from the BLA of stressed/MSO and stressed/ASO rats. FIG. 2D depicts mean GluA1: GAPDH optical density ratios (±SEM) from the BLA of stressed/MSO and stressed/ASO rats. […] FIG. 2E depicts mean (±SEM) percent freezing in Context B on Day 3. […] FIG. 3C depicts mean freezing (±SEM) in Context B on Day 3.

[2] = test system: GluN1 subunit of the N-methyl-D-aspartate receptor (NMDAR); assay: Western blot of GluN1 protein in the BLA after SEFL trauma; type: in vivo; conditions: measured three weeks after the trauma; stressed and unstressed rats
Protocol: (§1) FIGS. 1B-D depict representative Western blot images and graphs of relative optical density ratios (±standard error of the mean (SEM)) of GluA1, GluA2, and GluN1, respectively, and a glyceraldehyde 3-phosphate dehydrogenase (GAPDH) control. […] Glutamate receptor protein changes were measured three weeks after the initial trauma via Western blotting. While the GluA2 subunit of the AMPAR and the GluN1 subunit of the N-methyl-D-aspartate receptor (NMDAR) remained unchanged after trauma, GluA1 increased substantially.
(§2) FIG. 1A illustrates an experimental design using SEFL (7, 8). Protein levels were measured using Western blot, an analytical technique to detect specific proteins in tissue samples.
FIG. 1D depicts representative Western blot images of GluN1 and GAPDH from the BLA of stressed and unstressed rats, measured three weeks after the trauma.

[3] = test system: GluA2 subunit of the AMPAR; assay: Western blot of GluA2 protein in the BLA after SEFL trauma; type: in vivo; conditions: measured three weeks after the trauma; stressed and unstressed rats
Protocol: as §1, §2
FIG. 1C depicts representative Western blot images of GluA2 and GAPDH from the BLA of stressed and unstressed rats, measured three weeks after the trauma.

[4] = test system: GluA1 protein in the basolateral amygdala (BLA); assay: Western blot of GluA1 protein in the BLA after SEFL trauma; type: in vivo; conditions: metyrapone given before the trauma, measured three weeks after the trauma, stressed rats
Protocol: FIG. 1A illustrates an experimental design for Stress-Enhanced Fear Learning (SEFL), a rodent model of PTSD.
as §1, §2
FIG. 1B depicts representative Western blot images of GluA1 and a control, GAPDH, from the BLA of stressed and unstressed rats, measured three weeks after the trauma.
Because GluA1 increases are observed weeks after the trauma, post-trauma GluA1 ASO infusions directly into the BLA prevented sensitized fear responses usually observed in SEFL (FIGS. 2A-E) (5). […] FIG. 2C depicts representative Western blot images of GluA1 and GAPDH from the BLA of stressed/MSO and stressed/ASO rats. […]

Compound | percent freezing in Context B on Day 3 (sensitized fear, SEFL) ([1]; intra-BLA infusion after the 15-shock stressor (post-trauma), compared with stressed controls, hydrobromide) | GluN1: GAPDH optical density ratios in the BLA (GluN1 levels) [2] | SEFL (stress-enhanced fear learning) ([1]; given before the trauma) | GluA2: GAPDH optical density ratios in the BLA (GluA2 levels) [3] | GluA1: GAPDH optical density ratios in the BLA [4] | GluA1: GAPDH optical density ratios in the BLA ([4]; listed as metyrapone)
Br.C[N+](C)(C)CCCCCNCC12CC3CC(CC(C3)C1)C2.[Br-] [IEM-1460, N,N,H,-Trimethyl-5-[(tricyclo[3.3.1.13,7]dec-1-ylmethyl)amino]-1-pentanaminiumbromide hydrobromide] | significantly reduces freezing in Context B; also recorded: attenuate SEFL | – | – | – | – | –
CC(C)(C(=O)c1cccnc1)c1cccnc1 [Metyrapone] | – | Neither stress nor metyrapone had an effect on GluN1 levels | effectively preventing SEFL | Neither stress nor metyrapone had an effect on GluA2 levels | prevented GluA1 increases and conferred levels to that of unstressed controls | GluA1 protein levels in the BLA were significantly higher in stressed rats than in unstressed rats and metyrapone-treated rats
